Laboratory results taken from patent US12049474B2, “Nucleoside prodrugs and uses related thereto” (Emory University, priority 2019, dated 2024).
pIC50: −log10 of the molar value. Like-named read-outs stand apart in the source and are kept apart here.

What was measured:
[1] = Metabolic stability assay in human liver microsomes (HLM); type: in vitro ADME; conditions: pH 7.4, 3 μM test compound, NADPH, sampled 0-120 min, read-out: HLM t1/2
Experimental: The LC-MS/MS analysis was performed using Agilent 1260 Infinity II HPLC, coupled with an Agilent G6460 triple quadrupole mass spectrometer (Agilent Technologies, USA). All the data were acquired employing Agilent 6460 Quantitative Analysis data processing software.
Reverse-phase HPLC separation for each compound was achieved either on an Agilent Porshell 120 EC-C8 column (2.1×50 mm, 2.7 μm), or on an Agilent Zorbax XDB C18 column (2.1×50 mm, 3.5 μm) with a mobile phase composed of methanol-water-formic acid or acetonitrile-water-formic acid (0.1%) at a flow rate of 0.5 mL/min (changes for some compounds). Each method was developed in the presence of an internal standard (ISTD) d5-7-ethoxy coumarin. The column temperature was maintained at 40° C. for most of the samples otherwise noted. The detection was operated in the Agilent JetStream electrospray positive ionization using multiple reaction monitoring mode (MRM).
Other MS conditions were as follows: dwell time 100 ms; gas flow 10 L/min; nebulizer pressure 45 psi; delta EMV 200 V; fragmentor voltage and collision energy for individual compounds vary.
Test compounds were dissolved in 100% DMSO or 100% MeOH to make 10 mM stock solutions. Verapamil (Sigma Aldrich) aided as a positive control and was dissolved in 100% DMSO to make 10 mM stock solutions. The 10 mM stock solution of test and control compounds were further diluted in potassium phosphate buffer (100 mM, pH 7.4) to 500 μM to ensure the organic solvent content was <0.2%. Human liver microsomes (HLMs) were purchased from Xenotech at 20 mg/mL. NADPH (Sigma Aldrich) 10 mM stocks were prepared in deionized water.
The HLM assay was prepared in a 1.5 mL Eppendorf tube with a final volume of 1100 μL for duplicate runs. Each reaction contained phosphate buffer (928.4 μL), liver microsomes (55 μL), and test compound resulting in a final concentration of 3 μM (6.6 μL of 500 μM). The reaction was initiated with 110 μL of 10 mM NADPH. Aliquots (100 μL) were removed in duplicate at 0, 15, 30, 60, 120 min (for prodrug compounds) and 0, 5, 10, 15, 30 min (verapamil, positive control compound) time intervals and quenched in cold […] of 100% methanol which contained internal standard (ISTD: d5-7-ethoxy coumarin 4 μM). Before centrifugation each of the aliquoted tubes were vortexed to make sure compounds were in the solution. The aliquots were centrifuged at 12,000 g for 5 min and the supernatant removed and placed in an LC-MS vial. Each time point was assessed using LC-MS and the area, based on the extracted ion, was integrated with respect to the ISTD. Positive controls were conducted at a final volume of 550 μL to give each time point in a single run. A no-NADPH negative control with test or control compound was performed in a single run (150 μL) at the longest time point. Controls were processed and analyzed like the test compounds. Each time point was run in duplicates followed by in-between blank washes to avoid the carryover and to equilibrate the column.

CYP2D6 = CYP2D6 (Homo sapiens (Human), UniProt P10635); experiment: biochemical; type: biochemical
CYP2D6, sequence (P10635 whole entry, canonical isoform): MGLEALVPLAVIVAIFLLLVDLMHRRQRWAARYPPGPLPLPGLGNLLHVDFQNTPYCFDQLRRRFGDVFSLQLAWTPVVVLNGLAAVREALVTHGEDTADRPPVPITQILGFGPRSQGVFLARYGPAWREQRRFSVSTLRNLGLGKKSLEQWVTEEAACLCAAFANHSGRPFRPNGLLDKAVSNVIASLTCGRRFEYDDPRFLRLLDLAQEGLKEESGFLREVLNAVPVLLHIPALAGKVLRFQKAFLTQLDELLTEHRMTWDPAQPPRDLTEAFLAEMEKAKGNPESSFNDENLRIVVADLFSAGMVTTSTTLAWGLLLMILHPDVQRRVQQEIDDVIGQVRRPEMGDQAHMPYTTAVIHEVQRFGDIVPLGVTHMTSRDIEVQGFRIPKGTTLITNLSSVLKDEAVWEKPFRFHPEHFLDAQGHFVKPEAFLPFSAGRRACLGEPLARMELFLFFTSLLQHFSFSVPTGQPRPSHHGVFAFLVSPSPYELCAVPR
Experimental: (§1) The CYP450 inhibition assays utilized microsomes from insect cells expressing human recombinant individual cDNA-expressed CYP isoforms 3A4 and 2D6, as well as the fluorogenic probe that produces fluorescent metabolite. Standard inhibitors were co-incubated with fluorogenic substrates and their inhibitory potential (IC50) was determined. Assay conditions in terms of CYP450 protein concentration and time of incubation were standardized, enzyme kinetics parameters of each fluorescent probe substrate were estimated and IC50 values of inhibitors were determined and validated on different days to check reproducibility.
(§2) A 100 mM sodium phosphate buffer was prepared and adjusted to pH 7.4. In a separate falcon tube, a 2× enzyme/substrate (E/S) solution was prepared in phosphate buffer. The final concentration of CYP2D6 (CORNING®) and […] (AMMC) was 10 nM and 4 μM, and CYP3A4 (CORNING®) and 7-benzyloxy-4-(trifluoromethyl) coumarin (BFC) was 20 nM and 40 μM, respectively. In a separate falcon tube, a 2×NADPH regenerating system (NRS) was prepared in phosphate buffer. The final concentration for each component in the assay was as follows: • CYP2D6 assay: 0.008 mM NADPH, 3.3 mM glucose 6-phosphate, 0.4 U of glucose-6-phosphate dehydrogenase per mL
(§3) Both enzymatic assays were conducted in a 96-well microtiter plate (Black, CORNING® COSTAR®) with a final volume of 100 μL. Preparation of the plate began with the addition of 74 μL of the E/S in the first well, and 50 μL to all subsequent wells (from 2-11). The test compounds (1 μL) were dissolved in the first well to give the first row a final volume of 75 μL. A 1:3 serial dilution of the test compound was conducted by removing 25 μL from the first well and diluting it with the second and so forth until the tenth row. Final concentrations yielded a range from 200 μM-0.01 μM. Well no. 11 contained no inhibitor, and well no. 12 contained no enzyme. Both were used as controls for background fluorescence. The plate was incubated for 30 min at 37° C. After incubation, the reaction was initiated by the addition of 50 μL of the 2×NRS to each well.
Immediately (within 1 min) the fluorescence was measured using a microplate reader (BIOTEK® Synergy Neo2). CYP2D6 was monitored at Ex/Em=410/460 nm, and CYP3A4 monitored at Ex/Em=410/538 nm in kinetic mode that scanned every 5 min for 60 mins. Data was exported and analyzed using Graph Pad Prism 7. […] The IC50 value was derived after the data was fitted on a 10-point curve using a four-parameter logistic regression model.

CYP3A4 = CYP3A4 (Homo sapiens (Human), UniProt P08684); experiment: Fluorometric CYP450 enzyme inhibition assay, CYP3A4; type: biochemical
CYP3A4, sequence (P08684 whole entry): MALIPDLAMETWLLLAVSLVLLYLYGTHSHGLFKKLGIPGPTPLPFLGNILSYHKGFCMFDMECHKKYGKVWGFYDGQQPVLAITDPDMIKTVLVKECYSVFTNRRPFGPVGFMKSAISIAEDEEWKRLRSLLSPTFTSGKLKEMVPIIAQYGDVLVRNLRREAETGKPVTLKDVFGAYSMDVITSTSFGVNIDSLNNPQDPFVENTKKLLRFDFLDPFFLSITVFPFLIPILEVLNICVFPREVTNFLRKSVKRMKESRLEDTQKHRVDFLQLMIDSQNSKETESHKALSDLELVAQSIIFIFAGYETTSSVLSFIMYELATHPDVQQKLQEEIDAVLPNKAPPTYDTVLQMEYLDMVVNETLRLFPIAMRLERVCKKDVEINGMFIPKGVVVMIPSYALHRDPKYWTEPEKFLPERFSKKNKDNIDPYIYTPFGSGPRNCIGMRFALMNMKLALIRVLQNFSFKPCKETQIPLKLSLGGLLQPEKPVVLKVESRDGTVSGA
Experimental: as §1, §2
as §3, with “The test compounds (1 μL) were dissolved in the first well to give the first row a final volume of 75 μL.” left out
Immediately (within 1 min) the fluorescence was measured using a microplate reader (BIOTEK® Synergy Neo2). […] Data was exported and analyzed using Graph Pad Prism 7. […] The IC50 value was derived after the data was fitted on a 10-point curve using a four-parameter logistic regression model.

[2] = human recombinant CYP2D6, AMMC substrate, read-out: CYP450 IC50 2D6
[3] = human recombinant CYP3A4, BFC substrate, read-out: CYP450 IC50 3A4

| Structure (SMILES) | half-life at 3 µM [1] [min] | pIC50 (CYP2D6; [2]) | pIC50 (CYP3A4; [3]) | pIC50 (CYP2D6) | pIC50 (CYP3A4) |
| --- | --- | --- | --- | --- | --- |
| CCCCCCCCCCCCCCCOCCCCOP(=O)(O)COC(C)Cn1cnc2c(N)ncnc21.N (racemic) [NP-PD-150, Ammonium 4-pentadecoxybutoxy-[[rac-(1R)-2-(6-aminopurin-9-yl)-1-methyl-ethoxy]methyl]phosphinate] | 48 |  |  |  |  |
| CCCCCCCCCCCCCCOCCCCCOP(=O)(O)COC(C)Cn1cnc2c(N)ncnc21.N (racemic) [NP-PD-154, Ammonium [rac-(1R)-2-(6-aminopurin-9-yl)-1-methyl-ethoxy]methyl-(5-tetradecoxypentoxy)phosphinate] | 29 |  |  |  |  |
| CCCCCCCCCCCCCCCCCOCCOP(=O)(O)COC(C)Cn1cnc2c(N)ncnc21.N (racemic) [NP-PD-157, Ammonium 2-heptadecoxyethoxy-[[rac-(1R)-2-(6-aminopurin-9-yl)-1-methyl-ethoxy]methyl]phosphinate] | 35 |  |  |  |  |
| C#CCCCCCCCCCCCCCCCCSCCCOP(=O)(O)CO[C@H](C)Cn1cnc2c(N)ncnc21.N [BI-1-057, Ammonium 3-(octadec-17-yn-1-ylthio)propyl (R)-(((1-(6-amino-9H-purin-9-yl)propan-2-yl)oxy)methyl)phosphonate] | > 120 | 4.69 | 4.43 |  |  |
| N.[2H]C([2H])([2H])C([2H])([2H])CCCCCCCCCCCCCOP(=O)(O)CO[C@H](C)Cn1cnc2c(N)ncnc21 [EJM-8-030, Ammonium pentadecyl-14,14,15,15,15-d5 (R)-(((1-(6-amino-9H-purin-9-yl)propan-2-yl)oxy)methyl)phosphonate] | 20 |  |  | 4.42 | 4.28 |
| N.[2H]C([2H])([2H])CCCCCCCCCCCCCCCOP(=O)(O)CO[C@H](C)Cn1cnc2c(N)ncnc21 [EJM-8-036, Ammonium hexadecyl-16,16,16-d3 (R)-(((1-(6-amino-9H-purin-9-yl)propan-2-yl)oxy)methyl)phosphonate] | 21 |  |  | 4.69 | 4.06 |
| C[C@H](Cn1cnc2c(N)ncnc21)OCP(=O)(O)OCCCSCCCCCCCCCCCSc1ccccc1.N [MD-1-119, Ammonium 3-((11-(phenylthio)undecyl)thio)propyl (R)-(((1-(6-amino-9H-purin-9-yl)propan-2-yl)oxy)methyl)phosphonate] | 12 | 4.44 | 4.96 |  |  |
| CCCCCCCCCCSCCCCCCCCCOP(=O)(O)CO[C@H](C)Cn1cnc2c(N)ncnc21.N [MD-1-122, Ammonium 9-(decylthio)nonyl (R)-(((1-(6-amino-9H-purin-9-yl)propan-2-yl)oxy)methyl)phosphonate] | 13 |  |  |  |  |
| CCCCCCCCCCCCCCCCSCCCOP(=O)(O)CO[C@H](C)Cn1cnc2c(N)ncnc21 [MD-1-123, Ammonium 3-(hexadecylthio)propyl (R)-(((1-(6-amino-9H-purin-9-yl)propan-2-yl)oxy)methyl) phosphonate] | 42 | 3.96 | 4.24 |  |  |
| COC(=O)CCCCCCCCCCCCCCCSCCCOP(=O)(O)CO[C@H](C)Cn1cnc2c(N)ncnc21.N [MD-1-124, Ammonium 3-((16-methoxy-16-oxohexadecyl)thio)propyl (R)-(((1-(6-amino-9H-purin-9-yl)propan-2-yl)oxy)methyl)phosphonate] | 36 | 4.72 | 4.39 |  |  |
| C#CCCCCCCCCCCCCCCSCCCOP(=O)(O)CO[C@H](C)Cn1cnc2c(N)ncnc21 [MD-1-182, Ammonium 3-(hexadec-15-yn-1-ylthio)propyl (R)-(((1-(6-amino-9H-purin-9-yl)propan-2-yl)oxy)methyl) phosphonate] | 96 |  |  |  |  |
| C[C@H](Cn1cnc2c(N)ncnc21)OCP(=O)(O)OCCCSCCCCCCCCCCC#Cc1ccccc1.N [MD-1-183, Ammonium 3-((12-phenyldodec-11-yn-1-yl)thio)propyl (R)-(((1-(6-amino-9H-purin-9-yl)propan-2-yl)oxy)methyl)phosphonate] | 72 | < 4.70 |  |  |  |
| C[C@H](Cn1cnc2c(N)ncnc21)OCP(=O)(O)OCCCSCCCCCCCCCCCCc1ccccc1.N [MD-1-184, Ammonium 3-((12-phenyldodecyl)thio)propyl (R)-(((1-(6-amino-9H-purin-9-yl)propan-2-yl)oxy)methyl)phosphonate] | 69 | < 4.70 |  |  |  |
| CCCCCCCCCCCCCCCCCCSCCCOP(=O)(O)CO[C@H](C)Cn1cnc2c(N)ncnc21 [MD-1-185, Ammonium 3-(octadecylthio)propyl (R)-(((1-(6-amino-9H-purin-9-yl)propan-2-yl)oxy)methyl) phosphonate] | > 120 |  |  |  |  |
| CCCCCCCCCCCCCCCCCCCCSCCCOP(=O)(O)CO[C@H](C)Cn1cnc2c(N)ncnc21.N [MD-1-186, Ammonium 3-(icosylthio)propyl (R)-(((1-(6-amino-9H-purin-9-yl)propan-2-yl)oxy)methyl)phosphonate] | > 120 |  |  |  |  |
| CCCCCCCCCCCCCSCCCCCCOP(=O)(O)CO[C@H](C)Cn1cnc2c(N)ncnc21 [MD-1-219, Ammonium 6-(tridecylthio)hexyl (R)-(((1-(6-amino-9H-purin-9-yl)propan-2-yl)oxy)methyl) phosphonate] | 66 |  |  |  |  |
| CCCCSCCCCCCCCCCCCCCCOP(=O)(O)CO[C@H](C)Cn1cnc2c(N)ncnc21 [MD-1-221, Ammonium 15-(butylthio)pentadecyl (R)-(((1-(6-amino-9H-purin-9-yl)propan-2-yl)oxy)methyl) phosphonate] |  | < 4.70 | < 4.70 |  |  |
